The results in this text go back to ChEMBL document CHEMBL1201862, “PubChem BioAssay data set” (2004).

Holding throughout (assay): DTP human tumour cell line panel, 48 h
For test [1], the system named is OVCAR-8.
Test [2] deals with K562.
Test [3] deals with IGROV-1.
Test [4] has as its system SNB-75.
Test [5] relates to DMS-114.
Test [6] relates to LOX IMVI.
Test [7] deals with SW-620.
The test system of test [8] is HOP-92.
The subject of test [9] is SF-268.
Test [10] has as its system HCT-116.
For test [11], the system named is RPMI-8226.
For test [12], the system named is A498.
The subject of test [13] is U-251.
The test system of test [14] is COLO 205.
Test [15] deals with CCRF-CEM.
The subject of test [16] is OVCAR-3.
The subject of test [17] is T47D.
Test [18] relates to Hs-578T.
Test [19] deals with NCI/ADR-RES.
Test [20] deals with BT-549.

Molecules are shown by their SMILES.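 In this assay, cells in 96-well plates receive the compound at five concentrations for 48 hours. Endpoints are linearly interpolated between the surrounding concentrations. GI50 = concentration required for 50% inhibition of growth.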 Activity calls are given as the source filed them. No stated cut-off is given here; in the data, active = GI50 up to about 1.1 µM and inactive = higher. A value given as a limit tells only on which side of the number the result lay.

For orientation: GI50 means the concentration giving 50% growth inhibition. For the molecule `CCN(CC)Cc1cc(Nc2c3ccccc3nc3c2[nH]c2ccccc23)ccc1O`, the GI50 is 1.08 µM (active) in [1]; 1.87 µM (inactive) in test [2]; 1.16 µM (inactive) in test [3]; 1.59 µM (inactive) in test [4]; 1.64 µM (inactive) in test [5]; 1.22 µM (inactive) in test [6]. For the same molecule, the GI50 is 0.912 µM (active) in test [7]; 1.5 µM (inactive) in test [8]; 1.42 µM (inactive) in test [9]; 0.345 µM (active) in [10]; 1.96 µM (inactive) in test [11]; 1.61 µM (inactive) in [12]. Further, the values for the GI50 in [13] and in test [14] were 1.17 µM (inactive) and 1.02 µM (active), respectively.

For `N#CCC(=O)N1CCCCCCC1`, the GI50 in test [2] was > 100 µM (inactive); in test [3], > 100 µM (inactive); in test [5], 31.3 µM (inactive); in test [6], > 100 µM (inactive); in test [7], 5.87 µM (inactive); in test [9], > 100 µM (inactive). The GI50 in [10] is > 100 µM (inactive); in test [15], > 100 µM (inactive); in test [12], > 100 µM (inactive); in test [13], > 100 µM (inactive); in [14] it was 14.1 µM (inactive).

With `COC(=O)C1=C(O)C(O)=C(C(=O)OC)CC1`, the GI50 in [1], in [2], in test [3], in test [4], in test [5] and in test [6] was > 100 µM (inactive) in each case. The GI50 in test [7] was > 100 µM (inactive); in test [8], > 100 µM (inactive); in test [9], > 100 µM (inactive); in [10], 15.1 µM (inactive); in test [15], > 100 µM (inactive); in [11], > 100 µM (inactive). For the same molecule, the GI50 in test [12], in test [13], in test [14] and in test [16] was > 100 µM (inactive) throughout.

As to `O=C(NC12CC3CC(CC(F)(C3)C1)C2)c1ccccc1`, the GI50 in test [1] was > 100 µM (inactive); in [2], > 100 µM (inactive); in test [3], > 100 µM (inactive); in [4], 43.9 µM (inactive); in test [5], > 100 µM (inactive); in test [6], > 100 µM (inactive). In addition, the GI50 in test [7], in [8], in test [10], in test [15], in test [11] and in [12] was > 100 µM (inactive) in each case. Also, the GI50 in [13], in test [14] and in [16] was > 100 µM (inactive) in each case.

`O=C1CSC(/C(=C/c2ccccc2)c2nc3ccccc3[nH]2)=N1`: the GI50 was 47.2 µM (inactive) in test [1]; > 100 µM (inactive) in test [2]; 44.9 µM (inactive) in [3]; 14.2 µM (inactive) in test [4]; 32.3 µM (inactive) in test [5]; > 100 µM (inactive) in test [6]. For the same molecule, the GI50 in [7] was > 100 µM (inactive); in test [8] it was 61.4 µM (inactive); in test [9], > 100 µM (inactive); in [10] it was 41.7 µM (inactive); in test [15], 34 µM (inactive); in test [12], > 100 µM (inactive). Also, the GI50 in test [13] was 23.3 µM (inactive); in test [14] it was > 100 µM (inactive); in test [16] it was > 10 µM (inactive).

For `N#CC(C#N)=C1SCC(=O)CS1`, the GI50 is > 100 µM (inactive) in test [1]; > 100 µM (inactive) in [2]; > 100 µM (inactive) in test [3]; 89.1 µM (inactive) in test [4]; > 100 µM (inactive) in test [5]; > 100 µM (inactive) in test [6]. Further, the GI50 in test [7], in test [8], in [9], in test [10], in test [15] and in test [11] was > 100 µM (inactive) in each case. Besides, the GI50 in [12], in [13], in test [14] and in [16] was > 100 µM (inactive) throughout.

For `CCCC(O)c1cn(-c2cccc(S(=O)(=O)O)c2)nn1` (centres undefined), the GI50 in [1], in test [2], in test [3], in test [4], in test [5] and in [6] was > 100 µM (inactive) each time. Further, the GI50 in [7], in test [8], in test [9], in test [10], in [15] and in [11] was > 100 µM (inactive) throughout. Also, the GI50 in [12], in test [13], in test [14] and in [16] was > 100 µM (inactive) throughout.

On to `CC(C)(C)NNC(=O)/C(=C/c1ccc([N+](=O)[O-])cc1)NC(=O)c1ccccc1`, for which the GI50 in test [1] was > 100 µM (inactive); in [2] it was > 100 µM (inactive); in test [3], > 100 µM (inactive); in test [4] it was > 100 µM (inactive); in test [5] it was 18.6 µM (inactive); in test [6] it was 17.2 µM (inactive). Besides, the GI50 in test [8] is > 100 µM (inactive); in [9], 55.8 µM (inactive); in [10], > 10 µM (inactive); in test [15], 31.3 µM (inactive); in test [11], 45 µM (inactive); in test [12] it was > 100 µM (inactive). The GI50 is 39 µM (inactive) in test [13], 29 µM (inactive) in test [14] and > 100 µM (inactive) in test [16].

On to `COc1ccc(/C=N/N=C(\N)NO)cc1O`, for which the GI50 is 82.8 µM (inactive) in test [2]; 84.1 µM (inactive) in test [3]; 30.2 µM (inactive) in test [5]; 26.7 µM (inactive) in test [6]; 44.7 µM (inactive) in [7]; 20.6 µM (inactive) in test [8]. Also, the GI50 is 32 µM (inactive) in test [9]; 37.5 µM (inactive) in [10]; > 100 µM (inactive) in test [15]; > 100 µM (inactive) in [11]; 62.5 µM (inactive) in test [13]; 25.8 µM (inactive) in test [14].

In the case of `C=CCc1cc(-c2cc(CC=C)c(O)c(CNC)c2)cc(CNC)c1O`, the GI50 in test [1] is 17.6 µM (inactive); in test [2] it was 10.4 µM (inactive); in [3], 18 µM (inactive); in test [4], 11 µM (inactive); in [5] it was 16.1 µM (inactive); in test [6], 13.3 µM (inactive). In addition, the GI50 in [7] is 17.3 µM (inactive); in test [8], 11.1 µM (inactive); in test [9], 16.3 µM (inactive); in test [10] it was 14.7 µM (inactive); in [15], 7.4 µM (inactive); in [11] it was 20.7 µM (inactive). For the same molecule, the GI50 is 20.3 µM (inactive) in [12], 14.9 µM (inactive) in test [13], 18.5 µM (inactive) in [14] and 14.7 µM (inactive) in test [16].

Take `O=C(COC(=O)c1cccc2c(=O)c3ccccc3[nH]c12)Nc1ccc(Cl)cc1`: the GI50 is > 100 µM (inactive) in [1]; > 100 µM (inactive) in [2]; 70.6 µM (inactive) in test [3]; 24.3 µM (inactive) in test [4]; 58.6 µM (inactive) in [5]; 23.2 µM (inactive) in test [6]. Moreover, the GI50 in [7] was 85.5 µM (inactive); in test [8], 58.9 µM (inactive); in test [9], > 100 µM (inactive); in test [10], 13.6 µM (inactive); in [15], 54 µM (inactive); in test [12], 7.96 µM (inactive). For the same molecule, the figures for the GI50 in test [13], in test [14] and in test [16] were 24.9 µM (inactive), > 100 µM (inactive) and > 100 µM (inactive), respectively.

For the molecule `N#CC1CC2(C(=O)C1=O)c1ccccc1-c1ccccc12` (centres undefined), the GI50 in test [1] is > 100 µM (inactive); in test [2] it was 86.1 µM (inactive); in [3] it was > 100 µM (inactive); in test [4], > 100 µM (inactive); in [5] it was > 100 µM (inactive); in [6], > 100 µM (inactive). For the same molecule, the GI50 in [7] was > 100 µM (inactive); in test [9], > 100 µM (inactive); in [10], > 100 µM (inactive); in test [15], 67.5 µM (inactive); in test [12] it was > 100 µM (inactive); in [13] it was > 100 µM (inactive). Also, the GI50 in test [14] was > 100 µM (inactive); in test [16], 87.7 µM (inactive).

As to `CC(=O)Nc1ccc2c(C)c3c(nc2n1)[nH]c1ccccc13`, the GI50 in [17] is 13.3 µM (inactive); in test [1], 24.9 µM (inactive); in [2], 35.5 µM (inactive); in test [3] it was 22.2 µM (inactive); in test [4], 22.1 µM (inactive); in test [6], 16.4 µM (inactive). Besides, the GI50 in test [7] was 37.1 µM (inactive); in test [18], 19.8 µM (inactive); in [8] it was 20.4 µM (inactive); in test [9], 33 µM (inactive); in test [19], 22.1 µM (inactive); in [10], 21.6 µM (inactive). The GI50 was 30.6 µM (inactive) in test [15]; 27.2 µM (inactive) in [11]; 60.7 µM (inactive) in test [12]; 31.9 µM (inactive) in test [20]; 32.4 µM (inactive) in [13]; 17.2 µM (inactive) in test [14]. Further, the GI50 in test [16] is 23.9 µM (inactive).
